Experimental data: patent publication US10000467B2, “Cyanine compounds” (Pierce Biotechnology, Inc., priority 2012, dated 2018)

How the values were obtained:
[1] = tested on: protein disulphide isomerase (PDI); test: Immunofluorescence in U2OS cells, mouse-anti-PDI primary antibody; format: cell-based, human; details: FIGS. 17-19; GAM conjugates at 2.5×-15× molar excess
Description: (§1) The inventive compounds and commercial dye were evaluated for immunofluorescence in cell based assays using the following protocol. Plates containing U2OS cells (human osteosarcoma cell line) were fixed in 4% paraformaldehyde in PBS/0.1% Triton X-100 for 15 min at room temperature. The cells were then […] with 2% BSA in PBS/0.1% Triton X-100 for 15 min at room temperature. Negative controls contain only 2% BSA/PBS-0.1% Triton-X100 blocker. Diluted primary antibodies, mouse-anti-protein disulphide isomerase (PDI) or rabbit-anti-HDAC2, diluted in 2% BSA/PBS-0.1% Triton-X100 were added to the plates and incubated for one hour at room temperature. Negative controls contain only 2% BSA/PBS-0.1% Triton-X100 blocker. The plates were washed 3×100 μl with PBS. Based on the calculated protein concentrations, the conjugates made in Example 22 were diluted to 4 μg/ml in PBS/0.1% Triton X-100 and added to the plates (50 μl/well) and incubated one hour in the dark at room temperature. After incubation, the […] antibody solution was removed from the plates, and the plates were washed 3×100 μl with PBS. One hundred μl of 0.1 μg/ml Hoechst dye in PBS was added per well. The plates were then scanned on an ArrayScan® Plate Reader for imaging and quantitation.

HDAC2 = test: Immunofluorescence in U2OS cells, rabbit-anti-HDAC2 primary antibody; format: cell-based, human
Description: as §1

[2] = FIGS. 20-22, GAR conjugates purified with 200 μl of resin/mg of protein

## Alexa Fluor 647
[1]
  Fluorescence intensity (Mean Total Intensity): highest binding intensity at 2.5× dye molar excess
  Quenching: significant quenching above 2.5× molar excess
HDAC2; FIGS. 14-16, GAR conjugates at 2.5×-15× molar excess
  Quenching: significant quenching at high molar excesses
HDAC2; [2]
  Fluorescence intensity (Mean Total Intensity): highest binding intensity at 2.5× dye molar excess
  Quenching: significant quenching above 2.5× molar excess
